Measured values: patent US11325938B2, “CD73 inhibitors” (ORIC Pharmaceuticals, Inc., priority 2018, dated 2022)
pIC50: −log10 of the molar value.

What follows are compounds tested against CD73 (Homo sapiens (Human), UniProt P21589) (assay: Biochemical assay: inhibition of CD73 activity (AMP hydrolysis, Malachite Green readout)). Details: CD73 0.3208 nM, AMP 15 μM, 25 mM Tris-HCl pH 7.4, RT, absorbance 620 nm.
Sequence of CD73 (P21589 27-574): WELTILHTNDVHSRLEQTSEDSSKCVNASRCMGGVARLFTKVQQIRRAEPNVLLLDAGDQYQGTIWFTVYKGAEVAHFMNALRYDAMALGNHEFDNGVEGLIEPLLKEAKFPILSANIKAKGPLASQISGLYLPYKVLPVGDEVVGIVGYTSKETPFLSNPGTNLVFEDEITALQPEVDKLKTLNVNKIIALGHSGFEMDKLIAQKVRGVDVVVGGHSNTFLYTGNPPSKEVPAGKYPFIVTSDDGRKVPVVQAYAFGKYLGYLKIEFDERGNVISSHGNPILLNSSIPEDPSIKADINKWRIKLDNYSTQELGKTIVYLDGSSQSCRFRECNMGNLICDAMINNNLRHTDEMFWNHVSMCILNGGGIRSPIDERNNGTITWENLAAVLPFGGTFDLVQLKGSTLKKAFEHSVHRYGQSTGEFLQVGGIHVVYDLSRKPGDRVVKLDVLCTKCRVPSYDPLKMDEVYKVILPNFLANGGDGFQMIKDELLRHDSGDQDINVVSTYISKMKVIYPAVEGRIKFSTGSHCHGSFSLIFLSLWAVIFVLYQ
Protocol: Example A1: Biochemical Assay
Assay Reaction Conditions
• Assay Volume: 70 μl • Reaction Volume: 50 μl • CD73: 0.3208 nM • AMP: 15 μM • Assay Buffer: 25 mM Tris-HCL, pH 7.4, 0.01% Brij-35, 0.01% BSA, 5 mM MgCl2 Assay Procedure:
Made dose titration of testing compounds in assay buffer, 10 points ½ log titrations in duplicates starting at 100 μM.
Added 25 μl of CD73 to each well for a final concentration of 320 pM.
Incubated at RT for 15 min.
Added 25 μl of AMP to each well for a final concentration of 15 μM.
Incubated at RT for 10 min.
Added 10 μl of Malachite Green Reagent A, incubate at RT for 10 min.
Added 10 of Malachite Green Reagent B, incubate at RT for 45 min.
Read the Absorbance on Envision plate reader using excitation filter: Cy5 […].
The ability of the compounds disclosed herein to inhibit CD73 activity was quantified and the respective IC50 values were determined. Table 2 provides the biochemical IC50 values of compounds disclosed herein.
For `C[C@@](CO)(OC[C@H]1O[C@@H](n2nnc3c(NC4CCCC4)cc(Cl)nc32)[C@H](O)[C@@H]1O)P(=O)(O)O` [Example 139, ((R)-2-(((2R,3S,4R,5R)-5-(5-chloro-7-(cyclopentylamino)-3H-[1,2,3]triazolo[4,5-b]pyridin-3-yl)-3,4-dihydroxytetrahydrofuran-2-yl)methoxy)-1-hydroxypropan-2-yl)phosphonic acid], the pIC50 was ≥ 7.00.
A pIC50 of 6.00 to 7.00 was found for `O=C(O)c1ccc(C[C@@](CO)(OC[C@H]2O[C@@H](n3ncc4c(NC5CCCC5)nc(Cl)nc43)[C@H](O)[C@@H]2O)P(=O)(O)O)cc1` (racemic) [Example 187, rac-4-((R)-2-(((2R,3S,4R,5R)-5-(6-chloro-4-(cyclopentylamino)-1H-pyrazolo[3,4-d]pyrimidin-1-yl)-3,4-dihydroxytetrahydrofuran-2-yl)methoxy)-3-hydroxy-2-phosphonopropyl)benzoic acid] in this work.
For `COCC(C)(OC[C@H]1O[C@H](n2nnc3c(N[C@@H]4CCc5ccccc54)nc(Cl)nc32)[C@H](O)[C@@H]1O)P(=O)(O)O` (stereo partly drawn) [Example 154, (2-(((2R,3S,4R,5S)-5-(5-chloro-7-(((R)-2,3-dihydro-1H-inden-1-yl)amino)-3H-[1,2,3]triazolo[4,5-d]pyrimidin-3-yl)-3,4-dihydroxytetrahydrofuran-2-yl)methoxy)-1-methoxypropan-2-yl)phosphonic acid], the pIC50 was ≥ 7.00.
For `CC(CO)(OC[C@H]1O[C@@H](n2ncc3c(N[C@@H]4CCC45CCC5)nc(Cl)nc32)[C@H](O)[C@@H]1O)P(=O)(O)O` (stereo partly drawn) [Example 135, (2-(((2R,3S,4R,5R)-5-(6-chloro-4-(((R)-spiro[3.3]heptan-1-yl)amino)-1H-pyrazolo[3,4-d]pyrimidin-1-yl)-3,4-dihydroxytetrahydrofuran-2-yl)methoxy)-1-hydroxypropan-2-yl)phosphonic acid], the pIC50 was ≥ 7.00.
With `COC[C@](CO)(OC[C@H]1O[C@@H](n2ncc3c(NC4CCCC4)nc(Cl)nc32)[C@H](O)[C@@H]1O)P(=O)(O)O` [Example 150, ((R)-2-(((2R,3S,4R,5R)-5-(6-chloro-4-(cyclopentylamino)-1H-pyrazolo[3,4-d]pyrimidin-1-yl)-3,4-dihydroxytetrahydrofuran-2-yl)methoxy)-1-hydroxy-3-methoxypropan-2-yl)phosphonic acid] the pIC50 was ≥ 7.00.
With `C[C@@H]1CCC[C@@H]1Nc1nc(Cl)nc2c1cnn2[C@@H]1O[C@H](COC(CO)(Cc2nn[nH]n2)P(=O)(O)O)[C@@H](O)[C@H]1O` (mixture of isomers) [Example 209, rac-(2-(((2R,3S,4R,5R)-5-(6-chloro-4-(((1S,2R)-2-methylcyclopentyl)amino)-1H-pyrazolo[3,4-d]pyrimidin-1-yl)-3,4-dihydroxytetrahydrofuran-2-yl)methoxy)-1-hydroxy-3-(2H-tetrazol-5-yl)propan-2-yl)phosphonic acid] the pIC50 was ≥ 7.00.
For `COC[C@H](OC[C@H]1O[C@@H](n2nnc3c(NC4CCCC4)cc(Cl)nc32)[C@H](O)[C@@H]1O)P(=O)(O)O` [Example 157, ((R)-1-(((2R,3S,4R,5R)-5-(5-chloro-7-(cyclopentylamino)-3H-[1,2,3]triazolo[4,5-b]pyridin-3-yl)-3,4-dihydroxytetrahydrofuran-2-yl)methoxy)-2-methoxyethyl)phosphonic acid], the pIC50 was ≥ 7.00.
`C[C@](CO)(OC[C@H]1O[C@@H](n2nnc3c(NC4CCCC4)cc(Cl)nc32)[C@H](O)[C@@H]1O)P(=O)(O)O` [Example 140, ((S)-2-(((2R,3S,4R,5R)-5-(5-chloro-7-(cyclopentylamino)-3H-[1,2,3]triazolo[4,5-b]pyridin-3-yl)-3,4-dihydroxytetrahydrofuran-2-yl)methoxy)-1-hydroxypropan-2-yl)phosphonic acid] was tested, and the pIC50 was ≥ 7.00.
With `O=P(O)(O)C(CO)(CO)OC[C@H]1O[C@@H](n2ncc3c(NC4CCC45CCC5)nc(Cl)nc32)[C@H](O)[C@@H]1O` (mixture of isomers) [Example 204, rac-(2-(((2R,3S,4R,5R)-5-(6-chloro-4-(spiro[3.3]heptan-1-ylamino)-1H-pyrazolo[3,4-d]pyrimidin-1-yl)-3,4-dihydroxytetrahydrofuran-2-yl)methoxy)-1,3-dihydroxypropoan-2-yl)phosphonic acid] the pIC50 was ≥ 7.00.
For `C[C@@](CO)(OC[C@H]1O[C@@H](n2ncc3c(N[C@@H]4CC[C@H]5CCC[C@H]54)nc(Cl)nc32)[C@H](O)[C@@H]1O)P(=O)(O)O` (racemic) [Example 182, rac-((R)-2-(((2R,3S,4R,5R)-5-(6-chloro-4-(((1R,3aR,6aR)-octahydropentalen1-yl)amino)-1H-pyrazolo[3,4-d]pyrimidin-1-yl)-3,4-dihydroxytetrahydrofuran-2-yl)methoxy)-1-hydroxypropan-2-yl)phosphonic acid], the pIC50 was ≥ 7.00.
In the case of `CCOCC(COCC)(OC[C@H]1O[C@@H](n2ncc3c(NC4CCCC4)nc(Cl)nc32)[C@H](O)[C@@H]1O)P(=O)(O)O` (racemic) [Example 185, rac-(2-(((2R,3S,4R,5R)-5-(6-chloro-4-(cyclopentylamino)-1H-pyrazolo[3,4-d]pyrimidin-1-yl)-3,4-dihydroxytetrahydrofuran-2-yl)methoxy)-1,3-diethoxypropan-2-yl)phosphonic acid], the pIC50 was ≥ 7.00.
With `CN(c1nc(Cl)nc2c1cnn2[C@@H]1O[C@H](COC(CO)(CO)P(=O)(O)O)[C@@H](O)[C@H]1O)C1CCCC1` (racemic) [Example 211, rac-(2-(((2R,3S,4R,5R)-5-(6-chloro-4-(cyclopentyl(methyl)amino)-1H-pyrazolo[3,4-d]pyrimidin-1-yl)-3,4-dihydroxytetrahydrofuran-2-yl)methoxy)-1,3-dihydroxypropan-2-yl)phosphonic acid] the pIC50 was ≥ 7.00.
`C[C@@](CO)(OC[C@H]1O[C@@H](n2ncc3c(NC4CCCC4)nc(CO)nc32)[C@H](O)[C@@H]1O)P(=O)(O)O` [Example 128, ((R)-2-(((2R,3S,4R,5R)-5-(4-(cyclopentylamino)-6-(hydroxymethyl)-1H-pyrazolo[3,4-d]pyrimidin-1-yl)-3,4-dihydroxytetrahydrofuran-2-yl)methoxy)-1-hydroxypropan-2-yl)phosphonic acid] was tested, and the pIC50 was ≥ 7.00.
In the case of `O=P(O)(O)[C@@](CO)(Cc1nn[nH]n1)OC[C@H]1O[C@@H](n2ncc3c(NCC4CC4)nc(Cl)nc32)[C@H](O)[C@@H]1O` (racemic) [Example 197, rac-((R)-2-(((2R,3S,4R,5R)-5-(6-chloro-4-((cyclopropylmethyl)amino)-1H-pyrazolo[3,4-d]pyrimidin-1-yl)-3,4-dihydroxytetrahydrofuran-2-yl)methoxy)-1-hydroxy-3-(2H-tetrazol-5-yl)propan-2-yl)phosphonic acid], the pIC50 was ≥ 7.00.
`C[C@H](O)[C@H](OC[C@H]1O[C@@H](n2ncc3c(NC4CCCC4)nc(Cl)nc32)[C@H](O)[C@@H]1O)P(=O)(O)O` [Example 12, ((1R,2S)-1-(((2R,3S,4R,5R)-5-(6-chloro-4-(cyclopentylamino)-1H-pyrazolo[3,4-d]pyrimidin-1-yl)-3,4-dihydroxytetrahydrofuran-2-yl)methoxy)-2-hydroxypropyl)phosphonic acid] was tested, and the pIC50 was ≥ 7.00.
`O=P(O)(O)C(CO)(CO)OC[C@H]1O[C@@H](n2ncc3c(N[C@@H]4CCc5cc(F)ccc54)nc(Cl)nc32)[C@H](O)[C@@H]1O` (racemic) [Example 176, rac-(2-(((2R,3S,4R,5R)-5-(6-chloro-4-(((R)-5-fluoro-2,3-dihydro-1H-inden-1-yl)amino)-1H-pyrazolo[3,4-d]pyrimidin-1-yl)-3,4-dihydroxytetrahydrofuran-2-yl)methoxy)-1,3-dihydroxypropan-2-yl)phosphonic acid] was tested, and the pIC50 was ≥ 7.00.
